Experimental data as given in ChEMBL document CHEMBL1140266, “(2R)-2-methylchromane-2-carboxylic acids: discovery of selective PPARalpha agonists as hypolipidemic agents” (Bioorg Med Chem Lett, 2005).

Experiments:
[1] = molecular target: T1, Peroxisome proliferator-activated receptor alpha (Homo sapiens, UniProt Q07869); assay type: functional, cell-based, COS-1
T1 sequence (Q07869 whole entry): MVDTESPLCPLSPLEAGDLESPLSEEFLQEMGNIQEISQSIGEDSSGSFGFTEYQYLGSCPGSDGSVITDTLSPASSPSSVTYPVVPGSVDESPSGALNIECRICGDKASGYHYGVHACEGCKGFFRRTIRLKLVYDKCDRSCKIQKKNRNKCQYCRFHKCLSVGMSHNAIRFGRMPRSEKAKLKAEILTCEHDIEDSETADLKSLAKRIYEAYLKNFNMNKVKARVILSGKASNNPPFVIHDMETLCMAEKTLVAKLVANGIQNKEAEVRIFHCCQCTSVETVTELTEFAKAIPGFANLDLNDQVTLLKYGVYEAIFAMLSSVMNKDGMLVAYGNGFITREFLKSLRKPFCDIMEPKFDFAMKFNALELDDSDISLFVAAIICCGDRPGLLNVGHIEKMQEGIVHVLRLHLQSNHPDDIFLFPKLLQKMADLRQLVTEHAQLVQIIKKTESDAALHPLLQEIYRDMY
Description: Agonist activity against human PPARalpha in COS-1 cell Gal4 assay

in vivo [2] = settings: Sprague-Dawley, rat, iv, 0.5 mg/kg
Description: Hail-life period determined against Sprague-Dawley Rat at 0.5 mg/kg after intravenous administration; (Number of rats = 3)

[3] = molecular target: T1, Peroxisome proliferator-activated receptor alpha
Description: In vitro binding affinity against human PPARalpha

in vivo [4] = settings: Sprague-Dawley, rat, iv, 0.5 mg/kg; remark: listed apart in the source
in vivo [5] = settings: Sprague-Dawley, rat, po, 2 mg/kg
[6] = molecular target: T2, Peroxisome proliferator-activated receptor delta (Homo sapiens, UniProt Q03181)
T2 sequence (Q03181 whole entry): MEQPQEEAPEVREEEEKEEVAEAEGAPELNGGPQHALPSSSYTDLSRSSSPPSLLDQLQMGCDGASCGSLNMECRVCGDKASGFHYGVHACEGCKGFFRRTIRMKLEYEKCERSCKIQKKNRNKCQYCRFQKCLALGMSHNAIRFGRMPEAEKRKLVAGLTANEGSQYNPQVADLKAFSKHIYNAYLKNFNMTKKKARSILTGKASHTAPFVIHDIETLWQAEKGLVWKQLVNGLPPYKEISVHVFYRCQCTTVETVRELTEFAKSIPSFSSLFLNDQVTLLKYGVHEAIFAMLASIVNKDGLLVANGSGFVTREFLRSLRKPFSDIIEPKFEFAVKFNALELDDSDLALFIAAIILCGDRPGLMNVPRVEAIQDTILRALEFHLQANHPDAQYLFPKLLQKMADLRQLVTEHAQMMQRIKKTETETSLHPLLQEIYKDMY
Description: In vitro binding affinity against human PPARdelta

Cricetinae gen. sp. [7] = assay type: functional, Cricetulus griseus; settings: at 10 mg/kg
Description: In vivo efficacy at 10 mpk against Hamster for cholesterol lowering effect after oral dosing; Number of animals= 9 (vehicle 0.5% methylcellulose)

Cricetinae gen. sp. [8] = assay type: functional; settings: at 10 mg/kg
Description: In vivo efficacy at 10 mpk against Hamster for triglceride lowering effect after oral dosing; Number of animals= 9 (vehicle 0.5% methylcellulose)

Cricetinae gen. sp. [9] = assay type: functional, Cricetulus griseus; settings: at 10 mg/kg; remark: listed apart in the source
Description: In vivo efficacy at 10 mpk against Hamster for triglyceride lowering effect after oral dosing; Number of animals= 9 (vehicle 0.5% methylcellulose)

[10] = molecular target: T1, Peroxisome proliferator-activated receptor alpha; assay type: functional, cell-based; settings: cos-1
Description: Agonist activity against human PPARalpha in COS-1 cell Gal4 assay; NA= Not active (less than 20% activation at 10 uM)

in vivo [11] = settings: beagle, dog, iv, 0.5 mg/kg
in vivo [12] = settings: cercopithecidae, iv, 0.5 mg/kg
in vivo [13] = settings: rhesus monkey, po, 2 mg/kg
Description: Bioavailability determined against adult Rhesus monkey at 2 mg/kg after peroral administration

in vivo [14] = settings: beagle, dog, iv, 0.5 mg/kg; remark: listed apart in the source
Description: Hail-life period determined against adult Beagle dog at 0.5 mg/kg after intravenous administration; (Number of rats = 3)

in vivo [15] = settings: cercopithecidae, iv, 0.5 mg/kg; remark: listed apart in the source
Description: Hail-life period determined against adult Rhesus monkey at 0.5 mg/kg after intravenous administration; (Number of rats = 3)

in vivo [16] = settings: beagle, dog, po, 2 mg/kg
Description: Bioavailability determined against adult Beagle dog at 2 mg/kg after peroral administration

Cricetinae gen. sp. [17] = assay type: functional; settings: at 100 mg/kg
Cricetinae gen. sp. [18] = assay type: functional; settings: at 100 mg/kg; remark: listed apart in the source

Compound | EC50 [1] [nM] | IC50 [3] [nM] | IC50 [6] [nM] | also measured
CC[C@]1(C(=O)O)CCc2ccc(OCCCOc3ccc(C4CCCCC4)cc3Cl)cc2O1 | 5 | 15 | > 50000 | half-life (in vivo [2]): 1.2 h; clearance (in vivo [4]): 8.2 mL/min/kg; bioavailability (in vivo [5]): 57%
CC[C@]1(C(=O)O)CCc2ccc(OCCCOc3ccc(C4CCC5(CC4)CC5)cc3Cl)cc2O1 | 300 | 610 | > 50000 | half-life (in vivo [2]): 4.5 h; clearance (in vivo [4]): 0.62 mL/min/kg; bioavailability (in vivo [5]): 37%
CC(C)c1ccc(OCCCOc2ccc3c(c2)O[C@@](C)(C(=O)O)CC3)c(Cl)c1 | 23 | 48 | > 15000 | half-life (in vivo [2]): 1.3 h; clearance (in vivo [4]): 6.8 mL/min/kg; Efficacy (Cricetinae gen. sp. [7]): -40%; bioavailability (in vivo [5]): 54%; Efficacy (Cricetinae gen. sp. [8]): -18%
C[C@]1(C(=O)O)CCc2ccc(OCCCOc3ccc(OCC4CC4)cc3Cl)cc2O1 | 240 | 600 | > 15000 | half-life (in vivo [2]): 2.9 h; clearance (in vivo [4]): 5.1 mL/min/kg; Efficacy (Cricetinae gen. sp. [7]): -39%; Efficacy (Cricetinae gen. sp. [9]): -13%; bioavailability (in vivo [5]): 76%
CC(C)Oc1ccc(OCCCOc2ccc3c(c2)O[C@@](C)(C(=O)O)CC3)c(Cl)c1 | 40 | 240 | 7400 | 
CC[C@]1(C(=O)O)CCc2ccc(OCCCOc3ccc(C4CCC(C)(C)CC4)cc3Cl)cc2O1 | 700 | 1700 | > 50000 | half-life (in vivo [2]): 6.8 h; clearance (in vivo [4]): 2.7 mL/min/kg; bioavailability (in vivo [5]): 95%
C[C@]1(C(=O)O)CCc2ccc(OCCCOc3ccc(C4CCC5(CC4)CC5)cc3Cl)cc2O1 | 420 | 1600 | > 50000 | 
CC[C@]1(C(=O)O)CCc2ccc(OCCCOc3ccc(OCC(F)(F)F)cc3Cl)cc2O1 | 4 | 66 | > 50000 | 
C[C@]1(C(=O)O)CCc2ccc(OCCCOc3ccc(C4CCCCC4)cc3Cl)cc2O1 | 2 | 28 | > 15000 | 
CC[C@]1(C(=O)O)CCc2ccc(OCCCOc3ccc(CC(C)C)cc3Cl)cc2O1 | 7 | 29 | > 50000 | 
CC[C@]1(C(=O)O)CCc2ccc(OCCCOc3ccc(C4CCOCC4)cc3Cl)cc2O1 | 22 | 710 | > 50000 | half-life (in vivo [2]): 0.9 h; clearance (in vivo [4]): 15.6 mL/min/kg; bioavailability (in vivo [5]): 77%
CC(C)Cc1ccc(OCCCOc2ccc3c(c2)O[C@@](C)(C(=O)O)CC3)c(Cl)c1 | 6 | 16 | 7600 | half-life (in vivo [2]): 2.9 h; clearance (in vivo [4]): 2.6 mL/min/kg; Efficacy (Cricetinae gen. sp. [7]): -50%; bioavailability (in vivo [5]): 87%; Efficacy (Cricetinae gen. sp. [8]): -29%
C[C@]1(C(=O)O)CCc2ccc(OCCCOc3ccc(F)cc3Cl)cc2O1 |  | > 15000 | > 50000 | 
O=C(O)C1CCc2ccc(OCCCOc3ccc(OCC(F)(F)F)cc3Cl)cc2O1 (stereo unspecified) | 120 | 810 | 6900 | 
C[C@@]1(C(=O)O)CCc2ccc(OCCCOc3ccc(OCC(F)(F)F)cc3Cl)cc2O1 |  | > 50000 | > 50000 | EC50 [10]: Not Active
CC1(C)CCC(c2ccc(OCCCOc3ccc4c(c3)O[C@@](C)(C(=O)O)CC4)c(Cl)c2)CC1 | 1000 | 1700 | > 50000 | 

Compound | EC50 [1] [nM] | IC50 [3] [nM] | IC50 [6] [nM] | also measured
C[C@]1(C(=O)O)CCc2ccc(OCCCOc3ccc(OCC4CCC4)cc3Cl)cc2O1 | 140 | 390 | > 15000 | 
C[C@]1(C(=O)O)CCc2ccc(OCCCOc3ccc(OCC(F)(F)F)cc3Cl)cc2O1 | 40 | 110 | > 15000 | clearance (in vivo [11]): 5.8 mL/min/kg; half-life (in vivo [2]): 2.7 h; clearance (in vivo [12]): 5.6 mL/min/kg; bioavailability (in vivo [13]): 88%; clearance (in vivo [4]): 5.1 mL/min/kg; Efficacy (Cricetinae gen. sp. [7]): -60%; half-life (in vivo [14]): 6.2 h; Efficacy (Cricetinae gen. sp. [9]): -54%; half-life (in vivo [15]): 2.5 h; bioavailability (in vivo [5]): 60%; bioavailability (in vivo [16]): 100%
C[C@]1(C(=O)O)CCc2ccc(OCCCOc3ccc(Oc4ccc(F)cc4)cc3Cl)cc2O1 | 61 | 140 | 5000 | 
COc1ccc(OCCCOc2ccc3c(c2)O[C@@](C)(C(=O)O)CC3)c(Cl)c1 |  | 3900 | > 50000 | 
C[C@]1(C(=O)O)CCc2ccc(OCCCOc3ccc(OC(F)(F)F)cc3Cl)cc2O1 | 20 | 57 | 490 | 
CC[C@]1(C(=O)O)CCc2ccc(OCCCOc3ccc(C(C)C)cc3Cl)cc2O1 | 24 | 38 | > 15000 | 
CC[C@]1(C(=O)O)CCc2ccc(OCCCOc3ccc(OC(F)(F)F)cc3Cl)cc2O1 | 6 | 37 | 1900 | 
CC[C@]1(C(=O)O)CCc2ccc(OCCCOc3ccc(C(F)(F)F)cc3Cl)cc2O1 | 36 | 90 | 2300 | 
C[C@]1(C(=O)O)CCc2ccc(OCCCOc3ccc(C4CCCC4)cc3Cl)cc2O1 | 9 | 40 | 10500 | half-life (in vivo [2]): 1.3 h; clearance (in vivo [4]): 6.8 mL/min/kg; Efficacy (Cricetinae gen. sp. [7]): -40%; bioavailability (in vivo [5]): 54%; Efficacy (Cricetinae gen. sp. [8]): -21%
CCOc1ccc(OCCCOc2ccc3c(c2)O[C@@](C)(C(=O)O)CC3)c(Cl)c1 | 220 | 1380 | > 15000 | 
CCC(C)(C)c1ccc(OCCCOc2ccc3c(c2)O[C@@](C)(C(=O)O)CC3)c(Cl)c1 | 4 | 7 | 14000 | 
CC[C@]1(C(=O)O)CCc2ccc(OCCCOc3ccc(F)cc3Cl)cc2O1 |  | > 15000 | > 15000 | EC50 [10]: Not Active
CC(C)(C)c1ccc(OCCCOc2ccc3c(c2)O[C@@](C)(C(=O)O)CC3)c(Cl)c1 | 80 | 230 | > 15000 | 
CC[C@]1(C(=O)O)CCc2ccc(OCCCOc3ccc(Cl)cc3Cl)cc2O1 | 130 | 400 | 4100 | 
CC[C@]1(C(=O)O)CCc2ccc(OCCCOc3ccc(C(C)(C)C)cc3Cl)cc2O1 | 28 | 180 | > 50000 | 
CC(C)OC(=O)C(C)(C)Oc1ccc(C(=O)c2ccc(Cl)cc2)cc1 [FENOFIBRATE] |  |  |  | Efficacy (Cricetinae gen. sp. [17]): -23%; Efficacy (Cricetinae gen. sp. [18]): -43%
